What all share (type): cell-based
In one experiment the target is T1, human TLR7 (Homo sapiens, UniProt Q9NYK1).
T1 construct: host or cells: HEK-Blue cells
T1 sequence (Q9NYK1 27-1049): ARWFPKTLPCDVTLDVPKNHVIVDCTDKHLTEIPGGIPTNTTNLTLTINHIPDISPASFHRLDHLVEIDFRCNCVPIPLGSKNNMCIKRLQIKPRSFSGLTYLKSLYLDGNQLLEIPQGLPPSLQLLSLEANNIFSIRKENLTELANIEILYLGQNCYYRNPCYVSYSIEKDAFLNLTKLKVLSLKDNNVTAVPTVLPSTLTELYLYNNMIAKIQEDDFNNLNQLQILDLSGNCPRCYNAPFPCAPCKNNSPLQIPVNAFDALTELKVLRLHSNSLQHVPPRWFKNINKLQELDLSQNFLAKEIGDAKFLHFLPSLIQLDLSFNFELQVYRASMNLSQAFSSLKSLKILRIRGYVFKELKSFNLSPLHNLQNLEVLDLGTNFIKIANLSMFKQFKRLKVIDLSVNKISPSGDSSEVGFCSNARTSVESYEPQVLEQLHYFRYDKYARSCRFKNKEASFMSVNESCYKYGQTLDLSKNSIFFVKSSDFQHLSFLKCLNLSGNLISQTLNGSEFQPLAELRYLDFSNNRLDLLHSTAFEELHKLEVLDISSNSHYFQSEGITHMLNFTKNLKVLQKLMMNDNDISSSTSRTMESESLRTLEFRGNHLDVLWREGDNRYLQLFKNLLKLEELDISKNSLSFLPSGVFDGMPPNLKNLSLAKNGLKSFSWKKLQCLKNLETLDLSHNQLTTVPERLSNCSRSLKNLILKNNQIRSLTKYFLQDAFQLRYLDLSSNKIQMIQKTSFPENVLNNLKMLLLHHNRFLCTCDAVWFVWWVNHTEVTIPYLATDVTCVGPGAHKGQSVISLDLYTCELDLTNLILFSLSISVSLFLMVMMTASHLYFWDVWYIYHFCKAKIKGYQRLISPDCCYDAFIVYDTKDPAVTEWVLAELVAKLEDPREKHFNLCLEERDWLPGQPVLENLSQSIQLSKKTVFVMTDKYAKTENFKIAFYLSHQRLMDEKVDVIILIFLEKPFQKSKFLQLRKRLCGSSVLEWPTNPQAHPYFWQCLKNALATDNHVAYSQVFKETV
Briefly: TLR7 inhibition reporter assay (HEK-Blue, SEAP). The following applies: HEK-Blue cells overexpressing human TLR7, gardiquimod 7.5 μM, 22 hour incubation. The procedure, abridged:
(§1)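 HEK-Blue cells overexpressing human TLR7, TLR8 or TLR9 carry a SEAP reporter driven by NF-κB/AP-1 sites. Compounds (0.05 nM–50 μM) were preincubated 30 min at room temperature, then cells were stimulated with gardiquimod 7.5 μM (TLR7), R848 15.9 μM (TLR8) or ODN2006 5 nM (TLR9) for 22 h at 37 °C.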

Another experiment addresses T2, human TLR8 (Homo sapiens, UniProt Q9NR97).
T2 construct: host or cells: HEK-Blue cells
T2 sequence (Q9NR97 27-1041): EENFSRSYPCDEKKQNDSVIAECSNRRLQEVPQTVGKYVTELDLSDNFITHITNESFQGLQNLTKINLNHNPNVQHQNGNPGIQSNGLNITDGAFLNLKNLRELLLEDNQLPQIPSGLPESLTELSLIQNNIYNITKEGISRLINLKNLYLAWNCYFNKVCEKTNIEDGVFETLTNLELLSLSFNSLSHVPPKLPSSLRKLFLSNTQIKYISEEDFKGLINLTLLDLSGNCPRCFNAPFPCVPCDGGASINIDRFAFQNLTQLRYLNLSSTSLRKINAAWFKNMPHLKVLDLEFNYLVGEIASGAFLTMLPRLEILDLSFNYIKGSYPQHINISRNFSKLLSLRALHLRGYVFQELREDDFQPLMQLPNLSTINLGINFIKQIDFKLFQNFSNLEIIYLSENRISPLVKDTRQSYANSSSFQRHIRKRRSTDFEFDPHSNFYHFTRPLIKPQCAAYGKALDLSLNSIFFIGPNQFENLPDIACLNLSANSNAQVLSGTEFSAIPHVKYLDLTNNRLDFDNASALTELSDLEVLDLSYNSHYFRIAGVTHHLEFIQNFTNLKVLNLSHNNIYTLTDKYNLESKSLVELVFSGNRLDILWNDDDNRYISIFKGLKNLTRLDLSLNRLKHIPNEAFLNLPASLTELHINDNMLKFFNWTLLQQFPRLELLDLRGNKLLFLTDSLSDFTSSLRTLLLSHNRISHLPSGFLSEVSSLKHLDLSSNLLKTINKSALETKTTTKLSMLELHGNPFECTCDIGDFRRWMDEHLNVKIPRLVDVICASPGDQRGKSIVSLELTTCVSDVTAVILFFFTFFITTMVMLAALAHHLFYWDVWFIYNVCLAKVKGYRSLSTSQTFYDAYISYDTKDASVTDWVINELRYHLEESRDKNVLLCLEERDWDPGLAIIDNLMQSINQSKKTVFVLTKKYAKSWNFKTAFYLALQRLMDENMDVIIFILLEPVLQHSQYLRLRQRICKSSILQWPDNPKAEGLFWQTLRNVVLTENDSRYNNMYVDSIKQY
Nature of the experiment: TLR8 inhibition reporter assay (HEK-Blue, SEAP). The following applies: HEK-Blue cells overexpressing human TLR8, R848 15.9 μM, 22 hour incubation. The procedure, abridged: as §1
In general terms: Reporter assays use an easily measured gene product as a stand-in for the process of interest.

Another experiment deals with T3, human TLR9 (Homo sapiens, UniProt Q9NR96).
T3 construct: host or cells: HEK-Blue cells
T3 sequence (Q9NR96 26-1032): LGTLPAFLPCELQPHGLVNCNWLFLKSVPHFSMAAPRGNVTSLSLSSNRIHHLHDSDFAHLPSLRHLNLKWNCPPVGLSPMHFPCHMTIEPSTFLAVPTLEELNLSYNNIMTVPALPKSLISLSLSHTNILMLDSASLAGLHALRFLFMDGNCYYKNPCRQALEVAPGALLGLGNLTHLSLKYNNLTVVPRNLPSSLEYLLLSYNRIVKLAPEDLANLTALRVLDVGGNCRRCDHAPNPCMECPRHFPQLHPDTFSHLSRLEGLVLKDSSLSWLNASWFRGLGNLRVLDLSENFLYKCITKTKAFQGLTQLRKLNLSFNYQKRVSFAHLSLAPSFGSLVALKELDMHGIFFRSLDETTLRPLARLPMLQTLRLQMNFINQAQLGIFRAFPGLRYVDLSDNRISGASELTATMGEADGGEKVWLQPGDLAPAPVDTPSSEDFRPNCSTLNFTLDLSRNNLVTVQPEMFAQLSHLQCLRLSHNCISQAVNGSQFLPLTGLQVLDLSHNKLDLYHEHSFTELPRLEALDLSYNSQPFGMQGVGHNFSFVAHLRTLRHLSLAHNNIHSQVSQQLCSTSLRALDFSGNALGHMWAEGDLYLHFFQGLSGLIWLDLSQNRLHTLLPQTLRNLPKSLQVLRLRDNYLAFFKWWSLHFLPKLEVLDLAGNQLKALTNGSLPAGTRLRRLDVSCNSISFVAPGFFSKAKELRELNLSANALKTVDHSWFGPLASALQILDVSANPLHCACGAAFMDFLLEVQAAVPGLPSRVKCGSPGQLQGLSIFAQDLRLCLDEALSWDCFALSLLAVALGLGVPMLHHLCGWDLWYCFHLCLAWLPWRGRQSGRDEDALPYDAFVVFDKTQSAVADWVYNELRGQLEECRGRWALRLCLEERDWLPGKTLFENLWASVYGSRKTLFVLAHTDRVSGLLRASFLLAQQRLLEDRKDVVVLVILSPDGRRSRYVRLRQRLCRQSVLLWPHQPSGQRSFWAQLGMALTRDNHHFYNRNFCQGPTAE
Briefly: TLR9 inhibition reporter assay (HEK-Blue, SEAP). The following applies: HEK-Blue cells overexpressing human TLR9, ODN2006 5 nM, 22 hour incubation. The procedure, abridged:
as §1

SMILES strings stand for the structures.

Broadly, the IC50 is the concentration that inhibits the measured activity by half.

In the case of `Cc1cc(-c2[nH]c3ccc(C4CCN(CC(=O)N(C)C)CC4)cc3c2C(C)C)c(C)n2cnnc12` [Example 42, 2-(4-(2-(5,8-dimethyl-[1,2,4]triazolo[4,3-a]pyridin-6-yl)-3-isopropyl-1H-indol-5-yl)piperidin-1-yl)-N,N-dimethylacetamide], the IC50 is 32.5 nM against human TLR7, 6 nM on human TLR8 and 3750 nM against human TLR9.

Consider `Cc1c(-c2[nH]c3ccc(C4CCN(CCS(C)(=O)=O)CC4)cc3c2C(C)C)cn2cnnc2c1C` [Example 43, 6-(3-isopropyl-5-(1-(2-(methylsulfonyl)ethyl)piperidin-4-yl)-1H-indol-2-yl)-7,8-dimethyl-[1,2,4]triazolo[4,3-a]pyridine], for which the concentration for half-maximal inhibition (IC50) stood at 1.8 nM against human TLR7, 3.2 nM at human TLR8 and 6610 nM against human TLR9.

Turning to `Cc1c(-c2[nH]c3ccc(C4CCN(CCCC(F)(F)F)CC4)cc3c2C(C)C)cn2cnnc2c1C` [Example 44, 6-(3-isopropyl-5-(1-(4,4,4-trifluorobutyl)piperidin-4-yl)-1H-indol-2-yl)-7,8-dimethyl-[1,2,4]triazolo[4,3-a]pyridine], the results for the half-maximal inhibitory concentration (IC50) against human TLR7, against human TLR8 and at human TLR9 were 1.7 nM, 6.5 nM and 1750 nM, respectively.

`Cc1c(-c2[nH]c3ccc(C4CCN(Cc5ncn(C)n5)CC4)cc3c2C(C)C)cn2cnnc2c1C` [Example 45, 6-(3-isopropyl-5-(1-((1-methyl-1H-1,2,4-triazol-3-yl)methyl)piperidin-4-yl)-1H-indol-2-yl)-7,8-dimethyl-[1,2,4]triazolo[4,3-a]pyridine]: the figures for the IC50 on human TLR7, against human TLR8 and on human TLR9 were 3.2 nM, 8.1 nM and 2310 nM, respectively.

For the compound `Cc1c(-c2[nH]c3ccc(C4CCN(CCS(C)(=O)=O)CC4)cc3c2C(C)C)cn2cnnc2c1Cl` [Example 46, 8-chloro-6-(3-isopropyl-5-(1-(2-(methylsulfonyl)ethyl)piperidin-4-yl)-1H-indol-2-yl)-7-methyl-[1,2,4]triazolo[4,3-a]pyridine], the half-maximal inhibitory concentration (IC50) worked out at 2.1 nM against human TLR7, 8.6 nM against human TLR8 and 8910 nM on human TLR9.

Take `Cc1c(-c2[nH]c3ccc(C4CCN(Cc5ncn(C)n5)CC4)cc3c2C(C)C)cn2cnnc2c1Cl` [Example 47, 8-chloro-6-(3-isopropyl-5-(1-((1-methyl-1H-1,2,4-triazol-3-yl)methyl)piperidin-4-yl)-1H-indol-2-yl)-7-methyl-[1,2,4]triazolo[4,3-a] pyridine]: the values for the IC50 at human TLR7, against human TLR8 and at human TLR9 were 3.8 nM, 21.9 nM and 2070 nM, respectively.

`Cc1c(-c2[nH]c3ccc(C4CCN(CCCC(F)(F)F)CC4)cc3c2C(C)C)cn2cnnc2c1Cl` [Example 48, 8-chloro-6-(3-isopropyl-5-(1-(4,4,4-trifluorobutyl)piperidin-4-yl)-1H-indol-2-yl)-7-methyl-[1,2,4]triazolo[4,3-a]pyridine]: the IC50 against human TLR7 amounted to 1.9 nM; on human TLR8, 13.5 nM; against human TLR9, 2570 nM.

For the compound `Cc1c(-c2[nH]c3ccc(C4CCN(CC(=O)N(C)C)CC4)cc3c2C(C)C)cn2cnnc2c1Cl` [Example 49, 2-(4-(2-(8-chloro-7-methyl-[1,2,4]triazolo[4,3-a]pyridin-6-yl)-3-isopropyl-1H-indol-5-yl)piperidin-1-yl)-N,N-dimethylacetamide], the IC50 against human TLR7 came to 1.5 nM; at human TLR8, 31.1 nM; against human TLR9, 957 nM.

For the compound `Cc1c(-c2[nH]c3ccc(C4CCN(CC#N)CC4)cc3c2C(C)C)cn2cnnc2c1Cl` [Example 50, 2-(4-(2-(8-chloro-7-methyl-[1,2,4]triazolo[4,3-a]pyridin-6-yl)-3-isopropyl-1H-indol-5-yl)piperidin-1-yl)acetonitrile], the figures for the IC50 against human TLR7, against human TLR8 and at human TLR9 were 1.5 nM, 57 nM and 1090 nM, respectively.

Consider `Cc1c(-c2[nH]c3ccc(C4CCN(CC#N)CC4)cc3c2C(C)C)cn2cnnc2c1C` [Example 51, 2-(4-(2-(7,8-dimethyl-[1,2,4]triazolo[4,3-a]pyridin-6-yl)-3-isopropyl-1H-indol-5-yl)piperidin-1-yl)acetonitrile], for which the IC50 on human TLR7 came to 2.8 nM; against human TLR8, 31.8 nM; at human TLR9, 1000 nM.

`Cc1c(-c2[nH]c3ccc(C4CCN(CCN5CCCS5(=O)=O)CC4)cc3c2C(C)C)cn2cnnc2c1C` [Example 52, 2-(2-(4-(2-(7,8-dimethyl-[1,2,4]triazolo[4,3-a]pyridin-6-yl)-3-isopropyl-1H-indol-5-yl)piperidin-1-yl)ethyl)isothiazolidine 1,1-dioxide]: the IC50 turned out to be 1.5 nM against human TLR7, 5.8 nM against human TLR8 and 1280 nM against human TLR9.

On to `Cc1c(-c2[nH]c3ccc(C4CCN(CCN5CCCS5(=O)=O)CC4)cc3c2C(C)C)cn2cnnc2c1Cl` [Example 53, 2-(2-(4-(2-(8-chloro-7-methyl-[1,2,4]triazolo[4,3-a]pyridin-6-yl)-3-isopropyl-1H-indol-5-yl)piperidin-1-yl)ethyl) isothiazolidine 1,1-dioxide], for which the half-inhibitory concentration (IC50) against human TLR7 is 0.9 nM; at human TLR8, 10.1 nM; against human TLR9 it was 565 nM.

For the origin of these results see patent publication US11130756B2, “[1,2,4]Triazolo[4,3-A]pyridinyl substituted indole compounds” (BRISTOL-MYERS SQUIBB COMPANY, priority 2017, dated 2021).
